Assay results reported in PubChem BioAssay (NCI).
Several values for one entry are separate records, joined by “and”; a condition that tells them apart may be missing. Equal values may be shown once.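 How tested: cells in 96-well plates exposed to compound for 48 hours at five concentrations. At the GI50, growth is halved. TGI marks complete inhibition of growth.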

Tests used:
Experiment in all cases: DTP human tumour cell line panel, 48 h
HT29 colon = test system: HT29 colon
NCI-H23 lung = test system: NCI-H23 lung
CCRF-CEM leukemia = test system: CCRF-CEM leukemia
SF-539 CNS = test system: SF-539 CNS
OVCAR-8 ovarian = test system: OVCAR-8 ovarian
M14 melanoma = test system: M14 melanoma
SF-295 CNS = test system: SF-295 CNS
KM12 colon = test system: KM12 colon
HL-60(TB) leukemia = test system: HL-60(TB) leukemia
LOX IMVI melanoma = test system: LOX IMVI melanoma

| SMILES | TGI (HT29 colon) | TGI (NCI-H23 lung) | TGI (CCRF-CEM leukemia) | TGI (SF-539 CNS) | TGI (OVCAR-8 ovarian) | TGI (M14 melanoma) | TGI (SF-295 CNS) | TGI (KM12 colon) | TGI (HL-60(TB) leukemia) | GI50 (NCI-H23 lung) | GI50 (CCRF-CEM leukemia) | GI50 (SF-539 CNS) | GI50 (OVCAR-8 ovarian) | GI50 (M14 melanoma) | GI50 (LOX IMVI melanoma) | TGI (LOX IMVI melanoma) | GI50 (KM12 colon) | GI50 (HL-60(TB) leukemia) | GI50 (SF-295 CNS) | GI50 (HT29 colon) |
| --- | --- | --- | --- | --- | --- | --- | --- | --- | --- | --- | --- | --- | --- | --- | --- | --- | --- | --- | --- | --- |
| O=C1c2ccccc2C(=O)N1CC#CCO | > 100 µM | > 100 µM | > 100 µM | > 100 µM | > 100 µM | > 100 µM | > 100 µM | > 100 µM | > 100 µM | – | – | – | – | – | – | – | – | – | – | – |
| Nc1nc(N)c2c(ccc3c2ccn3Cc2cccc([N+](=O)[O-])c2)n1 | – | 2.46 µM | 2.03 µM and 1.07 µM | 1.64 µM | 1.7 µM | 1.77 µM | 3.49 µM and 4.55 µM | 2.21 µM and 1.95 µM | 2.5 µM | 0.0566 µM | 0.0221 µM and 0.0126 µM | 0.0454 µM | 0.00901 µM | 0.00865 µM | 0.00831 µM | 1.47 µM | 0.0937 µM and 0.129 µM | 0.00918 µM and 0.0476 µM | – | – |
| CN1C(=O)N(C)C2C1NC(=S)N2/N=C/C=C/c1ccccc1[N+](=O)[O-] (stereo not drawn) | – | > 100 µM | > 100 µM | 8.44 µM | > 100 µM | > 100 µM | > 100 µM | > 100 µM | 2.8 µM | 2.75 µM | 0.822 µM | 0.537 µM | 3.11 µM | 0.92 µM | 0.87 µM | > 100 µM | 0.774 µM | 0.414 µM | 0.625 µM | – |
| O=C(Nc1ccc(Br)c2ccccc12)c1ccc2ccccc2c1O | 15.3 µM | 10.2 µM | > 100 µM | 24.9 µM | 19.2 µM | 18.3 µM | 8.65 µM | 13.7 µM | 88.8 µM | – | – | – | – | – | – | – | – | – | – | – |
| CCC(O)CCCCCCCCCCCCCCC(=O)O (stereo not drawn) | > 100 µM | > 100 µM | > 100 µM | > 100 µM | > 100 µM | > 100 µM | > 100 µM | > 100 µM | 80 µM | – | – | – | – | – | – | – | – | – | – | – |
| CCOC(=O)N1CCC(N=C2CSc3nnc(-c4cc(C(F)(F)F)cc(C(F)(F)F)c4)n3N2)CC1 | 3.65 µM | 8.37 µM | 5.28 µM | 3.88 µM | 6.25 µM | 3.54 µM | 3.08 µM | 3.95 µM | – | 2.66 µM | 2.01 µM | 2.06 µM | 2.44 µM | 1.95 µM | 1.77 µM | 3.45 µM | 2.04 µM | – | 1.51 µM | 1.97 µM |
| CCO/C=C\C12CCCC1NC(c1ccccc1)(c1ccccc1)O2 (stereo not drawn) | 57.8 µM | 80.2 µM | 51 µM | 66 µM | > 100 µM | 66 µM | > 100 µM | > 100 µM | 45.2 µM | – | – | – | – | – | – | – | – | – | – | – |
| CN(C(=O)C(C)(C)C)c1ccccc1I(=O)=O | > 100 µM | > 100 µM | 31.6 µM | > 100 µM | > 100 µM | – | > 100 µM | > 100 µM | > 100 µM | > 100 µM | 8.62 µM | > 100 µM | > 100 µM | – | > 100 µM | > 100 µM | > 100 µM | 3.81 µM | > 100 µM | > 100 µM |
| COc1ccc(C(C2=C(O)CC(C)OC2=O)C2=C(O)CC(C)OC2=O)cc1 (stereo not drawn) | > 100 µM | > 100 µM | > 100 µM | > 100 µM | > 100 µM | > 100 µM | > 100 µM | > 100 µM | – | – | – | – | – | – | – | > 100 µM | – | – | – | – |
| Cc1cc(I)cc(CN(C)CCCN2CCC(C)CC2)c1O | 21.3 µM | 33.7 µM | – | 27.5 µM | 33.5 µM | 26.8 µM | 29.3 µM | 27.9 µM | 31.6 µM | 15.4 µM | – | 14 µM | 16.7 µM | 13.7 µM | 15.5 µM | 31.4 µM | 13.1 µM | 12.5 µM | 14.5 µM | 9.02 µM |
| Cc1ccc(NC(=O)COc2ccc(Cl)cc2)cc1Cl | > 100 µM | 74.9 µM | 85.9 µM | > 100 µM | > 100 µM | > 100 µM | > 100 µM | > 100 µM | – | – | – | – | – | – | – | > 100 µM | – | – | – | – |
| C[C@]12CCC(=O)C=C1C[C@@H](O)[C@@H]1[C@@H]2CC[C@@]2(C)[C@H]1CC[C@]2(C)O | > 100 µM | > 100 µM | > 100 µM | – | > 100 µM | > 100 µM | > 100 µM | > 100 µM | > 100 µM | – | – | – | – | – | – | > 100 µM | – | – | – | – |
| Cc1ccc(/C=C2\CCCCC2=O)cc1 | > 100 µM | > 100 µM | 88.8 µM | > 100 µM | > 100 µM | > 100 µM | > 100 µM | – | 48.3 µM | – | – | – | – | – | – | > 100 µM | – | – | – | – |
| O=C(Nc1nc2c(C(F)(F)F)cccc2s1)c1cc(Cl)ccc1O | 13 µM | 1.44 µM | 12.5 µM | 1.96 µM | 53.8 µM | 22.8 µM | 0.707 µM | 11.8 µM | – | 0.296 µM | 0.328 µM | 0.286 µM | 0.326 µM | 0.35 µM | 0.32 µM | 10.8 µM | 0.363 µM | – | 0.232 µM | 0.44 µM |
| NS(=O)(=O)c1ccc(-n2nc3c(c2-c2cccs2)Cc2ccccc2-3)cc1 | 59.4 µM | 24.8 µM | 28.7 µM | 25.1 µM | 41.6 µM | 34.1 µM | 31.4 µM | 32.2 µM | – | 11.9 µM | 4.24 µM | 12.1 µM | 20.5 µM | 17.3 µM | 6.58 µM | 19.9 µM | 13.5 µM | – | 13.8 µM | 22.9 µM |
| CC(=O)C1=C(C)N(Cc2ccccc2)C2(O)C=CC(=O)C3=C(O)c4ccccc4C(=O)C312 (stereo not drawn) | > 100 µM | 24.7 µM | – | 7.09 µM | 30 µM | 9.03 µM | 27.9 µM | 26 µM | > 100 µM | 7.53 µM | – | 2.91 µM | 6.25 µM | 3.18 µM | 1.97 µM | 4.39 µM | 9.05 µM | > 100 µM | 12.5 µM | 3.71 µM |
| O=[N+]([O-])c1ccc2c(c1)C(N1CCN(CCO)CC1)Cc1ccc(F)cc1S2 (stereo not drawn) | 7.14 µM | 29 µM | 16.1 µM | 22.6 µM | 25.5 µM | – | 14.1 µM | 21.4 µM | 23.1 µM | – | – | – | – | – | – | – | – | – | – | – |
